Laboratory results taken from PubChem BioAssay AID652228 (The Scripps Research Institute Molecular Screening Center, 2013).
Activity calls are given as the source filed them.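 How the source made its calls: active means protein phosphatase 1 activity cut by at least 70% at 50 µM; inactive means inhibition below 70%.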

Target: Serine/threonine-protein phosphatase PP1-alpha catalytic subunit (Homo sapiens) (UniProt P62136)
Assay: PP1 inhibition of phosphohistone dephosphorylation, late-stage follow-up, biochemical, radiolabel, single concentration, powder samples (AID 652228)
Conditions: purified PP1alpha, 33P-phosphohistone dephosphorylation, scintillation; at 50 µM; stronger effect = higher value

Serine/threonine-protein phosphatase PP1-alpha catalytic subunit (Homo sapiens), sequence (P62136 whole entry, looked up): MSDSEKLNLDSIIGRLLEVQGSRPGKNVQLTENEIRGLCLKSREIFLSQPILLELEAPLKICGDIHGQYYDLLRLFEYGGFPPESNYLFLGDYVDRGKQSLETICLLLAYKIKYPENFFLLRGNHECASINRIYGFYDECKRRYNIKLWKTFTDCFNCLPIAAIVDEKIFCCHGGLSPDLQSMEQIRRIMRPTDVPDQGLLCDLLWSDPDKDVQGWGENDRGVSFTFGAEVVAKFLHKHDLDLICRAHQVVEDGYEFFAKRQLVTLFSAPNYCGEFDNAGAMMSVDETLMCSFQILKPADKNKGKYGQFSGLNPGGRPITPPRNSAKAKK

Q: With `Oc1c(C(c2ccccn2)N2CCC(Cc3ccccc3)CC2)cc(Cl)c2cccnc12` (stereo not given) as the compound, how does the inhibition read?
A: Its inhibition is 57.4%.

Q: How did the inhibition turn out when `CC1CCN(C(c2ccccn2)c2cc(Cl)c3cccnc3c2O)CC1` (stereo not given) was run?
A: Its inhibition is 43.2%.

Q: Which inhibition does the source give for `Oc1c(C(c2ccccn2)N2CCNCC2)cc(Cl)c2cccnc12` (stereo not given) here?
A: The inhibition was 59%.

Q: With `CN1CCN(C(c2ccccc2)c2cc(Cl)c3cccnc3c2O)CC1` (stereo not given) as the compound, how does the inhibition read?
A: The inhibition was 4.84% (inactive).

Q: With `CN1CCN(C(c2ccccn2)c2cc(Cl)c3ccccc3c2O)CC1` (stereo not given) as the compound, how does the inhibition read?
A: Its inhibition is 5.68% (inactive).

Q: How did the inhibition turn out when `CCN1CCN(C(c2ccccn2)c2cc(Cl)c3cccnc3c2O)CC1` (stereo not given) was run?
A: The inhibition was -51.6% (inactive).

Q: `CCOC(c1ccccn1)c1cc(Cl)c2cccnc2c1O` (stereo not given) was tested. Which inhibition did it give?
A: Its inhibition is 15.6% (inactive).

Q: Which inhibition does the source give for `Oc1c(CN2CCN(c3ccccc3)CC2)cc(Cl)c2cccnc12` here?
A: The inhibition was 18.5% (inactive).

Q: `CN1CCN(C(c2ccccn2)c2cc(Cl)c3cccnc3c2O)CC1` (stereo not given) was tested. Which inhibition did it give?
A: The inhibition was -38.1% (inactive).

Q: `Oc1c(C(c2ccccn2)N2CCN(c3ccccc3F)CC2)cc(Cl)c2cccnc12` (stereo not given) was tested. Which inhibition did it give?
A: Its inhibition is 35.7%.

Q: How did the inhibition turn out when `CN1CCN(C(c2ccccn2)c2cc(Cl)ccc2O)CC1` (stereo not given) was run?
A: The inhibition was 2.44% (inactive).

Q: Which inhibition does the source give for `CC(C)(C)OC(=O)N1CCN(C(c2ccccn2)c2cc(Cl)c3cccnc3c2O)CC1` (stereo not given) here?
A: The inhibition was 49.1%.

Q: `CN1CCN(C(c2ccncc2)c2cc(Cl)c3cccnc3c2O)CC1` (stereo not given) was tested. Which inhibition did it give?
A: The inhibition was 4.17% (inactive).

Q: Which inhibition does the source give for `CN1CCN(C(c2cccnc2)c2cc(Cl)c3cccnc3c2O)CC1` (stereo not given) here?
A: The inhibition was 10% (inactive).

Q: Which inhibition does the source give for `Oc1c(CN2CCN(c3ccccn3)CC2)cc(Cl)c2cccnc12` here?
A: The inhibition was 12.6% (inactive).
